{"source": "patent US20200146973A1", "about": "“Pharmaceutical Composition for Oral Delivery of Hydrophobic Small Molecule Drug and Hydrophilic Small Molecule Drug Concurrently” (National Tsing Hua University, priority 2016, published 2020)", "key": {"RAW 264.7 cells": {"tested_on": "RAW 264.7 cells", "assay": "Uptake of emulsion containing DiO and Rhodamine B by RAW 264.7 cells (CLSM)", "format": "cell-based", "conditions": "3 hours of incubation, FIG. 12", "procedure": "To understand better the route of drug delivery, RAW 264.7 cells are added the prepared emulsion containing DiO and Rhodamine B and then cultured for 3 hours. The unabsorbed emulsion is washed with PBS, and then the cells are fixed with formalin, stained, and observed with the CLSM. In addition, the rats are oral administrated with the enteric-coated gelatin capsules that contained the pharmaceutical composition of the present disclosure (the dose of DiO and Rhodamine B is 12 mg/kg, respectively). The animals are sacrificed 6 hours after oral administration, the MLNs are retrieved from euthanized rats, and the tissues are fixed in formalin for 4 hours at room temperature. Then the tissue was cut to size and embedded in OCT gel for frozen section and subsequent staining. The sections are finally examined by CLSM."}, "[1]": {"assay": "Pharmacokinetics in rats after I.V. injection or oral administration, plasma drug concentration quantified by HPLC", "experimental": "(§1) The pharmacokinetics of the pharmaceutical composition of the present disclosure is analyzed in this experiment. There are two groups, the rats are oral administered of the pharmaceutical composition of the present disclosure with 12 mg/kg of paclitaxel and 12 mg/kg of gemcitabine as the oral group, and the rats are tail intravenous injected at a dose of 12 mg/kg of paclitaxel and 12 mg/kg of gemcitabine as the I.V. group. After administration, blood of rat is collected from the tail vein at 0.5, 1, 2, 3, 4, 6, 8, 10, 12, 24, 48 hours, and plasma of rat is obtained after centrifugation. After treatment, the drug concentration is quantified by HPLC.\n(§2) For quantifying gemcitabine (hereafter GEM), tetrahydrouridine (10 mM, 10 μL) is added, and 2 mL of an organic mixture (15% isopropanol in ethyl acetate) is added into 100 μL of the plasma. After mixing, the supernatant is centrifuged, dried, and then dissolved in the mobile phase to perform HPLC. Mobile phase is 0.1 M ammonium acetate:acetonitrile=98:2. For quantifying paclitaxel (hereafter PTX), 400 μL of acetonitrile is added into 100μL of plasma. After mixing well, the sample is centrifuged to remove the supernatant. Then 100 μL of ZnSO4 (10% w/v aqueous solution) is added. After mixing well, the sample is centrifuged to remove the supernatant. Then 1 mL of ethyl acetate is added. After mixing well, the sample is centrifuged to remove the supernatant, and then dried. Then the sample is dissolved in methanol to perform HPLC. Mobile phase is H2O:acetonitrile=90:10."}, "[2]": {"conditions": "Lewis, rat, in vivo", "experimental": "as §1, §2"}, "in vivo": {"assay": "in vivo", "conditions": "Lewis, rat, 12 mg/kg", "experimental": "as §1, §2"}, "[3]": {"assay": "Ex vivo IVIS biodistribution of fluorescent model drugs in major organs", "parameters": "species or system rats", "conditions": "FIG. 14", "procedure": "Further, ex vivo imaging of the distributions of different drugs in the major organs that are isolated from the test rats was conducted using an in vivo imaging system (IVIS). The rats are oral administrated a dose of 12 mg/kg of DiO and 12 mg/kg of Rhodamine B as an experiment group, and tail intravenous injected the same dose of DiO and Rhodamine B as an I.V. control group. In addition, the rats are intraperitoneally injected cycloheximide 1 hour before oral administration to block lymphatic absorption as a control group. The animals are sacrificed 6 hours after the feeding and 1 hour after the tail intravenous injection. At the time of maximum accumulation, the rats are sacrificed to remove the main organs (heart, lung, liver, spleen, pancreas and kidney) and the distribution of the fluorescent dye is observed by IVIS."}, "[4]": {"assay": "In vivo transport route by immunofluorescence staining (small intestine, MLNs, tumor; CLSM)", "parameters": "species or system Lewis rats", "conditions": "oral capsule, DiO and Rhodamine B 12 mg/kg each, 6 hours after administration, FIG. 11", "text": "In addition to the comprehensive in vitro characterization of the pharmaceutical composition of the present disclosure, determination of the biodistribution of these lipid oil drops following in vivo administration is crucial because they act at the site of accumulation. To trace the pharmaceutical composition of the present disclosure in rats, DiO and Rhodamine B are used as fluorescent model drug for hydrophobic small molecule drug and hydrophilic small molecule drug, respectively.\nThe animal studies involved Lewis rats with masses of approximately 250 g and are performed in compliance with the “Guide for the Care and Use of Laboratory Animals”, which was prepared by the Institute of Laboratory Animal Resources, National Research Council, and published by the National Academy Press in 1996. The Institutional Animal Care and Use Committee of National Tsing Hua University approved all studies. To prepare the enteric-coated gelatin capsules for use in this experiment, hard gelatin capsules (size 9; Torpac Inc., Fairfield, N.J., U.S.A.) are manually filled with a powdered mixture of Rhodamine B (1 mg), DiO (1 mg), capric acid (18 mg), citric acid (6 mg), and sodium bicarbonate (5 mg), as per the manufacturer's instructions. […]"}, "[5]": {"conditions": "Lewis, rat, plasma, iv, 12 mg/kg"}, "[6]": {"conditions": "Lewis, rat, plasma, po, 12 mg/kg"}, "[7]": {"conditions": "Oral group, 12 mg/kg each, rat plasma"}}, "note": "Where two headings read alike, the source gives them in different places.", "data": [{"smiles": "CCCCCCCCCCCCCCCCCCN1/C(=C\\C=C\\c2oc3ccccc3[n+]2CCCCCCCCCCCCCCCCCC)Oc2ccccc21.[O-][Cl+3]([O-])([O-])[O-]", "note": "[DiO]", "values": [{"measurement": "uptake into cells (colocalization of DiO and DAPI fluorescence)", "setting": "RAW 264.7 cells", "result": "can be uptake into RAW 264.7 cells"}]}, {"smiles": "Nc1ccn([C@@H]2O[C@H](CO)[C@@H](O)C2(F)F)c(=O)n1", "note": "[GEM, gemcitabine]", "values": [{"measurement": "AUC", "setting": "[1]; [5]", "result": 41100, "unit": "ng·h/mL"}, {"measurement": "Cmax", "setting": "[1]; [5]", "result": "16700 ± 4380", "unit": "ng/mL"}, {"measurement": "MRT", "setting": "[1]; [5]", "result": 3.28, "unit": "h"}, {"measurement": "clearance", "setting": "[1]; [5]", "result": 4, "unit": "mL/min/kg"}, {"measurement": "half-life", "setting": "[1]; [5]", "result": 2.36, "unit": "h"}, {"measurement": "bioavailability", "setting": "[1]; Lewis, rat, plasma, oral, 12 mg/kg", "result": 56.8, "unit": "%"}, {"measurement": "AUC", "setting": "[1]; [6]", "result": 23400, "unit": "ng·h/mL"}, {"measurement": "Cmax", "setting": "[1]; [6]", "result": "3620 ± 1380", "unit": "ng/mL"}, {"measurement": "MRT", "setting": "[1]; [6]", "result": 5.61, "unit": "h"}, {"measurement": "half-life", "setting": "[1]; [6]", "result": 6.13, "unit": "h"}, {"measurement": "CL", "setting": "[1]; [7]", "result": 7.17, "unit": "mL/min/kg"}, {"measurement": "Tmaxz", "setting": "[1]; [7]", "result": 4.00, "unit": "h"}, {"measurement": "time at which the concentration reaches the highest peak, post-administration", "setting": "[1]; Oral group, FIG. 15B", "result": 4, "unit": "h"}, {"measurement": "time post-administration after which the concentration cannot be detected", "setting": "[2]; iv", "result": 6, "unit": "h"}, {"measurement": "AUMC", "setting": "[2]; iv, 12 mg/kg", "result": 135.11, "unit": "μg h^2/mL"}, {"measurement": "time post-administration within which the concentration still can be detected", "setting": "[2]; po", "result": "≤ 12", "unit": "h"}, {"measurement": "AUMC", "setting": "[2]; po, 12 mg/kg", "result": 131.19, "unit": "μg h^2/mL"}]}, {"smiles": "CC(=O)O[C@H]1C(=O)[C@@]2(C)[C@H]([C@H](OC(=O)c3ccccc3)[C@]3(O)C[C@H](OC(=O)[C@H](O)[C@@H](NC(=O)c4ccccc4)c4ccccc4)C(C)=C1C3(C)C)[C@]1(OC(C)=O)CO[C@@H]1C[C@@H]2O", "note": "[PTX, paclitaxel]", "values": [{"measurement": "bioavailability", "setting": "in vivo", "result": 59.2, "unit": "%"}, {"measurement": "AUC", "setting": "in vivo; iv", "result": 23600, "unit": "ng·h/mL"}, {"measurement": "Cmax", "setting": "in vivo; iv", "result": "20000 ± 5010", "unit": "ng/mL"}, {"measurement": "MRT", "setting": "in vivo; iv", "result": 1.66, "unit": "h"}, {"measurement": "clearance", "setting": "in vivo; iv", "result": 7, "unit": "mL/min/kg"}, {"measurement": "half-life", "setting": "in vivo; iv", "result": 10.2, "unit": "h"}, {"measurement": "AUC", "setting": "in vivo; po", "result": 7250, "unit": "ng·h/mL"}, {"measurement": "Cmax", "setting": "in vivo; po", "result": "1010 ± 970", "unit": "ng/mL"}, {"measurement": "MRT", "setting": "in vivo; po", "result": 7.22, "unit": "h"}, {"measurement": "half-life", "setting": "in vivo; po", "result": 14.4, "unit": "h"}, {"measurement": "time post-administration after which the concentration cannot be detected", "setting": "[2]; iv", "result": 6, "unit": "h"}, {"measurement": "AUMC", "setting": "[2]; iv, 12 mg/kg", "result": 39.21, "unit": "μg h^2/mL"}, {"measurement": "time at which the concentration reaches the highest peak, post-administration", "setting": "[2]; po", "result": 6, "unit": "h"}, {"measurement": "time post-administration within which the concentration still can be detected", "setting": "[2]; po", "result": "≤ 12", "unit": "h"}, {"measurement": "AUMC", "setting": "[2]; po, 12 mg/kg", "result": 52.32, "unit": "μg h^2/mL"}, {"measurement": "CL", "setting": "[2]; po, 12 mg/kg", "result": 23, "unit": "mL/min/kg"}, {"measurement": "Tmaxz", "setting": "[2]; po, 12 mg/kg", "result": 8.00, "unit": "h"}]}, {"smiles": "CCN(CC)c1ccc2c(-c3ccccc3C(=O)O)c3ccc(=[N+](CC)CC)cc-3oc2c1.[Cl-]", "note": "[Rhodamine B]", "values": [{"measurement": "organ accumulation (ex vivo IVIS)", "setting": "[3]; I.V. control group, tail intravenous injection 12 mg/kg each, 1 hour", "result": "accumulated in liver, pancreas and kidneys"}, {"measurement": "organ accumulation (ex vivo IVIS)", "setting": "[3]; control group, cycloheximide intraperitoneally 1 hour before oral administration, 6 hours", "result": "accumulated in liver, pancreas and the lateral surfaces of intestinal tract"}, {"measurement": "organ accumulation (ex vivo IVIS)", "setting": "[3]; experiment group, oral 12 mg/kg each, 6 hours", "result": "accumulated in liver, pancreas and the lateral surfaces of intestinal tract"}, {"measurement": "location of fluorescent signals (immunofluorescence staining)", "setting": "[4]", "result": "located on the lateral surfaces of the villi, Peyer's patches and tumor"}]}]}
